Results reported in patent publication US4201843A, “Process for manufacturing tylosin derivatives” (Sanraku Ocean Co., Ltd., priority 1975, dated 1980).
Values after ≈ are worked out from the molar mass of the structure shown.

Tests used:
[1] = basicity of the compounds (alkalinity); type: physicochemical
Description: (§1) The physicochemical analysis and deterimations included elementary analysis, melting point, specific rotatory power, ultraviolet spectrum, infrared spectrum, magnetic nuclear resonance (NMR), C^13 -NMR, mass spectrum (chemical ionization), the release of organic acids under alkaline conditions (gas chromatographical detection), solubility in solvents, color development reaction, basicity of the compounds, appearance and crystalline form. The molecular weight was obtained as QM^+ (Quasi Molecular ion) by chemically-ionized mass spectra analysis.
(§2) (2) the crystals obtained from the solvents in (13) were used for the tests in (1)-(12), and […]

[2] = solubility in solvents; type: physicochemical
Description: as §1, §2

[3] = test system: Staphylococcus aureus MS 9610; test: minimum growth-inhibitory concentration; type: cell-based; conditions: MS9610; Staphylococcus aureus MS 9610, drug resistant strain
Protocol: (§3) The antimicrobial spectra of new tylosin derivatives of this invention are shown in Table 2 by listing the minimum growth inhibitory concentrations (MIC, mcg/ml). […] The toxicity of these compounds was tested in animals by intravenous administration, and the LD50 values in mice are more than 400 mg/kg with all compounds. In therapeutical experiments with mice manually infected by Staphilococcus aureus SMITH, the ED50 values were less than 50 mg/kg (p.o.) with all said tylosin derivatives.
(§4) The strains marked * in Table 2 are the drug resistant strains isolated from patients, namely, Staphilococcus aureus MS-9610 which is resistant to penicillin, tetracycline, erythromycin, leucomycin, spiramycin, josamycin and tylosin, Staphilococcus aureus MS-8710 which is resistant to penicillin, tetracycline, erythromycin, leucomycin and tylosin, and Streptococcus pyogenes MH 771 which is resistant to erythromycin, oleandomycin, leucomycin and tylosin.

[4] = test system: Staphylococcus aureus MS 8710; test: minimum growth-inhibitory concentration; type: cell-based; conditions: MS8710; Staphylococcus aureus MS 8710, drug resistant strain
Protocol: as §3, §4

[5] = test system: Streptococcus pyogenes MH 771; test: minimum growth-inhibitory concentration; type: cell-based; conditions: MH771, read-out: minimum growth-inhibitory concentration (MIC)
Protocol: as §3
(broth-dilution method)
as §4

[6] = test system: drug resistant strains; test: antimicrobial activity against drug resistant strains; type: cell-based; conditions: strains marked * in Table 2
Description: One of the particular advantages of the said tylosin derivatives over known macrolide antibiotics is their distinct antimicrobial activity against drug resistant bacteria.
as §4

[7] = test system: Escherichia coli (National Institute of Health); test: minimum growth-inhibitory concentration; type: cell-based
Protocol: as §3

[8] = test system: Staphylococcus aureus FAD209P; test: minimum growth-inhibitory concentration; type: cell-based; conditions: read-out: minimum growth-inhibitory concentration (MIC)
Protocol: as §3

[9] = test system: Bacillus megaterium NRRL B-938; test: minimum growth-inhibitory concentration; type: cell-based; conditions: Priestia megaterium, NRRLB938
Protocol: as §3

[10] = test system: Bacillus subtilis ATCC 6633; test: minimum growth-inhibitory concentration; type: cell-based; conditions: ATCC6633
Protocol: as §3

[11] = test system: Candida albicans IAM 4905; test: minimum growth-inhibitory concentration; type: cell-based; conditions: IAM4905
Protocol: as §3

[12] = test system: Staphylococcus aureus SMITH; test: minimum growth-inhibitory concentration; type: cell-based
Protocol: as §3

[13] = test system: Proteus morganii (The Institute for Infectious Diseases); test: minimum growth-inhibitory concentration; type: cell-based; conditions: Morganella morganii
Protocol: as §3

[14] = test system: Bacillus cereus ATCC 9634; test: minimum growth-inhibitory concentration; type: cell-based; conditions: ATCC9634
Protocol: as §3

[15] = test system: Corynebacterium bovis 1810; test: minimum growth-inhibitory concentration; type: cell-based
Protocol: as §3

[16] = test system: Sarcina lutea ATCC 9341; test: minimum growth-inhibitory concentration; type: cell-based; conditions: Micrococcus luteus, ATCC9341
Protocol: as §3

[17] = test system: Micrococcus flavus I; test: minimum growth-inhibitory concentration; type: cell-based
Protocol: as §3

[18] = test system: Candida tropicalis IAM 4924; test: minimum growth-inhibitory concentration; type: cell-based; conditions: IAM4924
Protocol: as §3

[19] = test system: Pseudomonas fluorescens NIHJB 254; test: minimum growth-inhibitory concentration; type: cell-based; conditions: NIHJB254
Protocol: as §3

[20] = test system: Mycobacterium smegmatis ATCC 607; test: minimum growth-inhibitory concentration; type: cell-based; conditions: Mycolicibacterium smegmatis, ATCC607
Protocol: as §3

[21] = set-up: species or system mice; conditions: mouse, in vivo, po, 100 mg/kg
Protocol: Another phase of advantages of the said tylosin derivatives is their high blood levels in animals. When each of these compounds is orally administered to mice in a dose of 100 mg/kg, their concentrations in blood were measured to be 5-20 mcg/ml, a substantially high value compared to that of tylosin (<1 mcg/ml). […] Their concentrations in blood one hour after administration reached up to 15-20 mcg/ml.

[22] = electrometric determination in dimethyl formamide-H2O=2:1 by volume; Japanese Patent (Kokoku) Showa No. 36-22649; cited from earlier work

| Compound | MIC [3] | MIC [4] | MIC [5] | MIC [7] | MIC [8] | MIC [9] | MIC [10] | MIC [11] | MIC [12] | MIC [13] | MIC [14] | MIC [15] | MIC [16] | MIC [17] | MIC [18] | MIC [19] | MIC [20] | further results |
| --- | --- | --- | --- | --- | --- | --- | --- | --- | --- | --- | --- | --- | --- | --- | --- | --- | --- | --- |
| CCCC(=O)OC1C(C)OC(OC2C(C)OC(OC3C(CC=O)CC(C)C(=O)/C=C/C(C)=C/C(COC4OC(C)C(O)C(OC)C4OC)C(CC)OC(=O)CC(O)C3C)C(O)C2N(C)C)CC1(C)O (stereo not shown) [4"-n-butyryltylosin] | > 250 µg/mL | 62.5 µg/mL (≈ 63.4 µM) | 15.6 µg/mL (≈ 15.8 µM) | 125 µg/mL (≈ 127 µM) | 0.25 µg/mL (≈ 0.253 µM) | 0.49 µg/mL (≈ 0.497 µM) | 0.49 µg/mL (≈ 0.497 µM) | > 250 µg/mL | 0.25 µg/mL (≈ 0.253 µM) | > 250 µg/mL | 0.98 µg/mL (≈ 0.994 µM) | 0.98 µg/mL (≈ 0.994 µM) | 0.25 µg/mL (≈ 0.253 µM) | 0.49 µg/mL (≈ 0.497 µM) | > 250 µg/mL | > 250 µg/mL | 3.91 µg/mL (≈ 3.96 µM) | alkalinity [1]: alkaline compounds; solubility in acidic water ([2]; acidic water): soluble; solubility in alkaline water ([2]; alkaline water): hardly soluble; solubility in lower alcohols, ketones, ethers, esters, benzene and toluene ([2]; e.g. ethanol, acetone, ethyl ether, ethyl acetate, benzene, toluene): soluble; solubility in n-hexane and petroleum ether ([2]; n-hexane and petroleum ether): hardly soluble; solubility in neutral water ([2]; neutral water): slightly soluble; antimicrobial activity against a wide range of drug resistant strains [6]: particularly strong antimicrobial activity |
| CC[C@H]1OC(=O)C[C@@H](O)[C@H](C)[C@@H](O[C@@H]2O[C@H](C)[C@@H](O[C@H]3C[C@@](C)(O)[C@@H](O)[C@H](C)O3)[C@H](N(C)C)[C@H]2O)[C@@H](CC=O)C[C@@H](C)C(=O)/C=C/C(C)=C/[C@@H]1CO[C@@H]1O[C@H](C)[C@@H](O)[C@@H](OC)[C@H]1OC [tylosin] | > 250 µg/mL | > 250 µg/mL | 250 µg/mL (≈ 273 µM) | 250 µg/mL (≈ 273 µM) | 0.49 µg/mL (≈ 0.535 µM) | 0.25 µg/mL (≈ 0.273 µM) | 0.49 µg/mL (≈ 0.535 µM) | > 250 µg/mL | 0.25 µg/mL (≈ 0.273 µM) | > 250 µg/mL | 0.49 µg/mL (≈ 0.535 µM) | 0.5 µg/mL (≈ 0.546 µM) | 0.12 µg/mL (≈ 0.131 µM) | 0.12 µg/mL (≈ 0.131 µM) | > 250 µg/mL | > 250 µg/mL | 7.81 µg/mL (≈ 8.53 µM) | concentration in blood [21]: < 1000 ng/mL |
| tylosin acetyl ester |  |  |  |  |  |  |  |  |  |  |  |  |  |  |  |  |  | pk value [22]: about 5.1 |
